Measurements reported in patent US20100311580A1, “Active Compound Combinations” (Bayer CropScience AG, priority 2007, published 2010).

What was measured:
Format in all cases: in vivo
Phaedon cochleariae = Phaedon cochleariae test (spray on cabbage leaves); details: larvae
Protocol: Solvent: 7 parts by weight of dimethylformamide
Emulsifier: 2 parts by weight of alkylaryl polyglycolether
(§1) To produce a suitable preparation of active compound, 1 part by weight of active compound is mixed with the stated amount of solvent and emulsifier, and the concentrate is diluted with emulsifier-containing water to the desired concentration.
Cabbage leaves (Brassica oleracea) are treated by being sprayed with the preparation of the active compound at the desired concentration and are infested with larvae of the mustard beetle (Phaedon cochleariae) as long as the leaves are still moist.
After the specified period of time, the mortality in % is determined. 100% means that all the beetle larvae have been killed; 0% means that none of the beetle larvae have been killed.

[1] = test system: Blumeria graminis f. sp. hordei; assay: Blumeria test (barley)/SAR 5d; details: 1000 ppm, inoculation 5 days after spraying, evaluated 7 days after inoculation
Protocol: Solvent: 50 parts by weight of n,n-dimethylacetamid Emulsifier: 1 part by weight of alkylaryl polyglycol ether
To produce a suitable preparation of active compound, 1 part by weight of active compound or active compound combination is mixed with the stated amounts of solvent and emulsifier, and the concentrate is diluted with water to the desired concentration.
To test for systemic activated resistance, young plants are sprayed with the preparation of active compound or active compound combination at the stated rate of application. After the spray coating has dried on, the plants are placed in a greenhouse at a temperature of approximately 18° C. and a relative atmospheric humidity of approximately 80%.
5 days after spraying, the plants are dusted with spores of Blumeria graminis f. sp. hordei. The plants then remain in a greenhouse at a temperature of approximately 18° C. and a relative atmospheric humidity of approximately 80% to promote the development of mildew pustules.
The test is evaluated 7 days after the inoculation, 1. and 2. leaf separated. 0% means an efficacy with corresponds to that of the control while an efficacy of 100% means that no disease is observed.

Nilaparvata lugens = Nilaparvata lugens test (spray on rice plants); details: larvae
Protocol: Solvent: 7 parts by weight of dimethylformamide Emulsifier: 2 parts by weight of alkylaryl polyglycolether
as §1
Rice plants (Oryza sativa) are treated by being sprayed with the preparation of the active compound at the desired concentration and are infested with larvae of the Brown plant hopper (Nilaparvata lugens) as long as the leaves are still moist.
After the specified period of time, the mortality in % is determined. 100% means that all the hopper larvae have been killed; 0% means that none of the hopper larvae have been killed.

Compound	Efficacy in % after 3 d (mortality) (Phaedon cochleariae; 4 ppm) [%]	Efficacy in % ([1]; 1st leaf) [%]	Efficacy in % ([1]; 2nd leaf) [%]	other results
CN/C(=N\[N+](=O)[O-])NCc1cnc(Cl)s1 [Clothianidin, clothianidin]	15	–	–	–
Cc1cc(C(F)(C(F)(F)F)C(F)(F)F)ccc1NC(=O)c1cccc(I)c1C(=O)NC(C)(C)CS(C)(=O)=O [Flubendiamide, flubendiamide]	0	22	22	Efficacy in % after 3 d (mortality) (Phaedon cochleariae; 0.8 ppm): 0%; Efficacy in % after 6 d (mortality) (Phaedon cochleariae; 4 ppm): 0%; Efficacy in % after 3 d (mortality) (Nilaparvata lugens; 0.16 ppm): 0%
O=[N+]([O-])NC1=NCCN1Cc1ccc(Cl)nc1 [Imidacloprid, imidacloprid]	–	–	–	Efficacy in % after 3 d (mortality) (Nilaparvata lugens; 0.8 ppm): 0%
N#Cc1ccccc1NC(=O)c1snc(Cl)c1Cl [Isotianil, 3,4-dichloro-N-(2-cyanophenyl)-5-isothiazolecarboxamide]	–	44	44	Efficacy in % after 3 d (mortality) (Phaedon cochleariae; 200 ppm): 0%; Efficacy in % after 6 d (mortality) (Phaedon cochleariae; 200 ppm): 0%; Efficacy in % after 3 d (mortality) (Nilaparvata lugens; 200 ppm): 0%
N#C/N=C1\SCCN1Cc1ccc(Cl)nc1 [Thiacloprid, thiacloprid]	5	–	–	–
